# Values joined by “and” are separate entries in the source; they are usually repeats but may differ in a detail not shown here. Identical values can stand only once.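 In this assay, cells in 96-well plates receive the compound at five concentrations for 48 hours. Endpoints are linearly interpolated between the surrounding concentrations. Abbreviation: GI50, concentration required for 50% inhibition of growth. TGI is the concentration that stops growth completely.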
# Tests used:
# Assay in all cases: NCI-60 cell line screen, 48 h
# K-562 leukemia = tested on: K-562 leukemia
# SF-539 CNS = tested on: SF-539 CNS
# NCI-H522 lung = tested on: NCI-H522 lung
# NCI-H23 lung = tested on: NCI-H23 lung
# SNB-75 CNS = tested on: SNB-75 CNS
# MALME-3M melanoma = tested on: MALME-3M melanoma
# ACHN renal = tested on: ACHN renal
# KM12 colon = tested on: KM12 colon
# HCC-2998 colon = tested on: HCC-2998 colon
# MDA-N = tested on: MDA-N
Compound,TGI (K-562 leukemia) [µM],TGI (SF-539 CNS),TGI (NCI-H522 lung) [µM],TGI (NCI-H23 lung),TGI (SNB-75 CNS) [µM],TGI (MALME-3M melanoma) [µM],TGI (ACHN renal),TGI (KM12 colon) [µM],TGI (HCC-2998 colon),GI50 (KM12 colon) [µM],GI50 (HCC-2998 colon) [µM],TGI (MDA-N) [µM],GI50 (K-562 leukemia) [µM],GI50 (MALME-3M melanoma)
CN(NC1=NCCO1)c1ccc2ccccc2c1,66.1,82.6 µM,> 100,> 100 µM,74.7,> 100,> 100 µM,> 100,99.4 µM,–,–,–,–,–
CC(SC(=S)N1CCOCC1)C(=O)Nc1nnc(-c2ccc(Cl)cc2)o1 (stereo not drawn),–,> 100 µM,–,> 100 µM,> 100,> 100,> 100 µM,–,> 100 µM,–,–,–,–,–
NS(=O)(=O)c1nnc(NC(=S)NC(=O)Nc2ccc(Cl)c(Cl)c2)s1,> 100,21.8 µM,31,40.4 µM,50,59,–,39.9,–,–,–,–,–,–
O=C1CC(c2cccc(Cl)c2)Nc2ccc(N3CCCC3)cc21 (stereo not drawn),0.017,–,0.0677,–,–,–,> 100 µM,0.117,0.0611 µM,0.0153,0.0148,–,–,–
COc1cc(C2c3cc4c(cc3OC(NN)C2C)OCO4)cc(OC)c1O (stereo not drawn),12.6,45.4 µM,42.2,> 100 µM,> 100,40.1,–,41.7,29.6 µM,–,–,–,–,–
O=C(CCc1cc(O)cc(O)c1)NCCc1cc(O)cc(OCc2ccccc2)c1,96.3,> 100 µM,> 100,> 100 µM,76.2,–,81.6 µM,> 100,39.1 µM,–,–,> 100,–,–
COc1ccc2nc3c(c(N)c2c1)C1CCC3C1(C)C (stereo not drawn),> 100,> 100 µM,> 100,> 100 µM,> 100,67.3,> 100 µM,> 100,31.9 µM,–,–,–,–,–
NNc1nnc(CCCCCCCCc2nnc(NN)n2N)n1N,> 100,> 100 µM,> 100,> 100 µM,> 100,–,> 100 µM,> 100,> 100 µM,–,–,> 100,–,–
CC1=NN(c2nc(N)nc(C(C)Cl)n2)C(C)(C)C1 (stereo not drawn),> 100,> 100 µM,–,> 100 µM,> 100,–,> 100 µM,> 100,> 100 µM,–,–,–,–,–
CSc1nncc(-c2cc3c(c(SC)n2)CCCC3)n1,> 100,> 100 µM,> 100,> 100 µM,> 100,–,> 100 µM,> 100,> 100 µM,–,–,> 100,–,–
C=CCON(C(=O)OC(C)(C)C)C(C)(C)C,> 100,–,> 100,> 100 µM,> 100,> 100,> 100 µM,> 100,> 100 µM,–,–,–,–,–
COc1cc2nc(Cl)nc(NS(=O)(=O)c3cc4ccccc4s3)c2cc1OC,52.6,> 100 µM,74.6,62.5 µM,60,> 100,99.6 µM,51.2,39.3 µM,–,–,–,–,–
N#Cc1ccccc1OCCOc1ccccc1C#N,> 100,> 100 µM,> 100,> 100 µM,> 100,> 100,> 100 µM,> 100,> 100 µM,–,–,–,–,–
O=c1[nH]c(N/N=C\C(O)C(O)C(O)C(O)CO)nc2ccccc12 (stereo not drawn),> 100,> 100 µM,–,> 100 µM,> 100,–,> 100 µM,> 100,–,–,–,> 100,–,–
CCOC(=O)c1cn(CC)c(=O)n2c1nc1ccccc12,> 100,> 100 µM,–,> 100 µM,> 100,–,> 100 µM,> 100,> 100 µM,–,–,> 100,–,–
c1cc(-c2ccc(-c3ccsc3)s2)cs1,> 100,89.8 µM,> 100,61 µM,76.4,–,> 100 µM,–,> 100 µM,–,–,> 100,–,–
CC(C)(C)OC(=O)N(CCCCNC(=O)C(F)(F)F)CCCNC(=O)C(F)(F)F,> 100,> 100 µM,> 100,> 100 µM,> 100,–,> 100 µM,> 100,> 100 µM,–,–,–,–,–
C[C@H]1CC[C@@]2(OC1)O[C@H]1C[C@H]3[C@@H]4CC[C@@H]5C[C@@H](OC6OC(CO)C(O)C(O)C6OC6OC(CO)C(O)C(O)C6O)CC[C@]5(C)[C@H]4CC[C@]3(C)[C@H]1[C@@H]2C (stereo partly drawn),4.33,3.72 µM,4.75,4.06 µM,4.07,4.5,3.82 µM,4.62,3.71 µM,–,–,–,–,–
Cc1cc(O)c(/C=N/C(N)=S)c(=O)o1,–,> 100 µM,> 100,> 100 µM,> 100,–,> 100 µM,> 100,> 100 µM,–,–,> 100,–,–
COc1cc([C@@H]2c3cc4c(cc3[C@@H](Nc3ccc(NC(=O)c5cc([N+](=O)[O-])cn5C)cc3)[C@H]3COC(=O)[C@H]23)OCO4)cc(OC)c1O,> 100,0.446 µM and 0.414 µM,> 100,4.04 µM and 0.546 µM,> 63.5,–,0.484 µM and 0.164 µM,–,0.8 µM and 0.872 µM,–,–,–,0.293,0.279 µM and 0.115 µM
